Patent publication US11117947B2, “Double-acylated GLP-1 derivatives” (Novo Nordisk A/S, priority 2011, dated 2021)
Numbered stars: 1 amine (or outer) side, 2 acyl side, 3 side chain; on linkers, the order of the positions; unused ones are H or OH. Side chains are listed from the residue outwards. Peptide text beside a SMILES is read from it. * marks the point of attachment. Decanoyl(10-(4-HOOC-PhO)) = O=C(O)c1ccc(OCCCCCCCCCC(=O)*)cc1; γGlu = O=C(O)[C@H](CCC(=O)[*:2])N[*:1]; C14 diacid = O=C(O)CCCCCCCCCCCCC(=O)*; AEEA = NCCOCCOCC(=O)O

Tests used:
[1] = Estimate of oral bioavailability: gut injection in rat (caprate), exposure in plasma; type: in vivo; conditions: injection in jejunum, 1000 uM in 55 mg/ml sodium caprate, plasma concentration (pM) at 30 min divided by dosing solution concentration (μM), mean n=4
Protocol: The GLP-1 derivatives were tested in a concentration of 1000 uM in a solution of 55 mg/ml sodium caprate.
Male Sprague Dawley rats with a body weight upon arrival of approximately 240 g were obtained from Taconic (Denmark) and assigned to the different treatments by simple randomisation, 4 rats per group.
The GLP-1 derivatives were administered in the jejunum either in the proximal part (10 cm distal for the duodenum) or in the mid-intestine (50 cm proximal for the cecum). A PE50-catheter, 10 cm long was inserted into the jejunum, forwarded at least 1.5 cm into the jejunum, and secured before dosing by ligature around the gut and the catheter with 3/0 suture distal to tip to prevent leak or catheter displacement. Catheter was placed without syringe and needle and 2 ml saline was administered into abdomen before closing the incision with wound clips.
100 μl of the respective GLP-1 derivative was injected into the jejunal lumen through the catheter with a 1 ml syringe. Subsequently, 200 μl of air was pushed into the jejunal lumen with another syringe to “flush” the catheter. This syringe was leaved connected to the catheter to prevent flow back into the catheter.
Blood samples (200 ul) were collected at desired intervals (usually at times 0, 10, 30, 60, 120 and 240 min) into EDTA tubes from the tail vein and centrifuged 5 minutes, 10000G, at 4° C. within 20 minutes. […] 12, p. 240-247. The donor beads were coated with streptavidin, while acceptor beads were conjugated with a monoclonal antibody recognising a mid-/C-terminal epitope of the peptide. Another monoclonal antibody, specific for the N-terminus, was biotinylated. The three reactants were combined with the analyte and formed a two-sited immuno-complex. Illumination of the complex released singlet oxygen atoms from the donor beads, which were channeled into the acceptor beads and triggered chemiluminescence which was measured in an Envision plate reader. The amount of light was proportional to the concentration of the compound.
After the blood sampling the rats were sacrificed under anaesthesia and the abdomen was opened to verify correct catheter placement.
The mean (n=4) plasma concentrations (pmol/l) were determined as a function of time.

human GLP-1 receptor = biological target: T1, human GLP-1 receptor (Homo sapiens, UniProt P43220); assay: GLP-1 receptor binding: displacement of 125I-GLP-1 (SPA) at low and high albumin; conditions: high albumin, 2.0% HSA; read-out: IC50/nM (high HSA)
T1 construct: expressed in transfected cells; membranes
T1 sequence (P43220 24-463): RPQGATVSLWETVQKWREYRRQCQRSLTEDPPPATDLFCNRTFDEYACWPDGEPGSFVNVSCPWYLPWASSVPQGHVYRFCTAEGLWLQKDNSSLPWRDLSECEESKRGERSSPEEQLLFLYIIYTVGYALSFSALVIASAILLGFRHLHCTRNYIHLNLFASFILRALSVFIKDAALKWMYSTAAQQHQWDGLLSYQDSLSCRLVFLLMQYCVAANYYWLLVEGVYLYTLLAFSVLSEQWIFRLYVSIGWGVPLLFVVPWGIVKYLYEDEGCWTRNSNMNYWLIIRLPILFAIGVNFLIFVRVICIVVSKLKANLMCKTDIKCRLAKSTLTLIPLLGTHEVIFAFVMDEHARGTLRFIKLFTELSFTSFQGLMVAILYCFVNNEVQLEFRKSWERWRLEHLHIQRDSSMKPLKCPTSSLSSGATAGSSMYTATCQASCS
Protocol: The purpose of this experiment is to investigate the binding to the GLP-1 receptor of the GLP-1 derivatives, and how the binding is potentially influenced by the presence of albumin. This is done in an in vitro experiment as described below.
In order to test the binding of the derivatives to albumin, the assay was performed with a low concentration of albumin (0.001%—corresponding to the residual amount thereof in the tracer), as well as with a high concentration of albumin (2.0% added). A shift in the binding affinity, IC50, is an indication that the peptide in question binds to albumin, and thereby a prediction of a potential protracted pharmacokinetic profile of the peptide in question in animal models.
Species (in vitro): Hamster
Biological End Point: Receptor Binding
A stable transfected cell line and a high expressing clone were selected for screening. The cells were grown at 5% CO2 in DMEM, 10% FCS, 1% Pen/Strep (Penicillin/Streptomycin) and 1.0 mg/ml of the selection marker G418.
The cells (approx. 80% confluence) were washed twice in PBS and harvested with Versene (aqueous solution of the tetrasodium salt of ethylenediaminetetraacetic acid), following which they were separated by centrifugation at 1000 rpm for 5 min. The cells/cell pellet must be kept on ice to the extent possible in the subsequent steps. The cell pellet was homogenised with Ultrathurrax for 20-30 seconds in a suitable amount of Buffer 1 (depending on the amount of cells, but e.g. 10 ml). The homogenate was centrifuged at 20000 rpm for 15 minutes. The pellet was resuspended (homogenised) in 10 ml Buffer 2 and re-centrifuged. This step was repeated once more. The resulting pellet was resuspended in Buffer 2, and the protein concentration was determined. The membranes were stored at minus 80° C.
Buffer 1: 20 mM Na-HEPES+10 mM EDTA, pH 7.4
Buffer 2: 20 mM Na-HEPES+0.1 mM EDTA, pH 7.4
Test compounds, membranes, SPA-particles and [^125I]-GLP-1(7-36)NH2 were diluted in assay buffer. 50 ul (micro liter) HSA (“high albumin” experiment containing 2% HSA), or buffer (“low albumin” experiment containing 0.001% HSA), was added to Optiplate, and 25 ul of test compounds were added. 5-10 ug membrane protein/sample was added (50 ul) corresponding to 0.1-0.2 mg protein/ml (to be preferably optimised for each membrane preparation). SPA-particles (Wheatgerm agglutinin SPA beads, Perkin Elmer, #RPNQ0001) were added in an amount of 0.5 mg/well (50 ul). The incubation was started with [^125I]-GLP-1]-(7-36)NH2 (final concentration 0.06 nM corresponding to 49.880 DPM, 25 ul). The plates were sealed with PlateSealer and incubated for 120 minutes at 30° C. while shaking. The plates were centrifuged (1500 rpm, 10 min) and counted in Topcounter.

Row | SMILES | Dose-corrected exposure at 30 min [1] | IC50 (human GLP-1 receptor)
1 | CC[C@H](C)[C@H](NC(=O)[C@H](Cc1ccccc1)NC(=O)[C@H](CCCCNC(=O)COCCOCCNC(=O)COCCOCCNC(=O)CC[C@H](NC(=O)CCCCCCCCCOc1ccc(C(=O)O)cc1)C(=O)O)NC(=O)[C@H](CCCNC(=N)N)NC(=O)[C@@H](NC(=O)[C@H](C)NC(=O)[C@H](CCC(N)=O)NC(=O)[C@H](CCC(=O)O)NC(=O)[C@H](CCC(=O)O)NC(=O)[C@H](CC(C)C)NC(=O)[C@H](Cc1ccc(O)cc1)NC(=O)[C@H](CO)NC(=O)[C@H](CO)NC(=O)[C@@H](NC(=O)[C@H](CC(=O)O)NC(=O)[C@H](CO)NC(=O)[C@@H](NC(=O)[C@H](Cc1ccccc1)NC(=O)[C@@H](NC(=O)CNC(=O)[C@H](CCC(=O)O)NC(=O)[C@H](C)NC(=O)[C@@H](N)Cc1c[nH]cn1)[C@@H](C)O)[C@@H](C)O)C(C)C)C(C)C)C(=O)N[C@@H](C)C(=O)N[C@@H](Cc1c[nH]c2ccccc12)C(=O)N[C@@H](CC(C)C)C(=O)N[C@H](C(=O)N[C@@H](CCCNC(=N)N)C(=O)NCC(=O)N[C@@H](CCCNC(=N)N)C(=O)N[C@@H](CCCCNC(=O)COCCOCCNC(=O)COCCOCCNC(=O)CC[C@H](NC(=O)CCCCCCCCCOc1ccc(C(=O)O)cc1)C(=O)O)C(=O)O)C(C)C [Example 4, N^ε27-[2-[2-[2-[[2-[2-[2-[[(4S)-4-carboxy-4-[10-(4-carboxyphenoxy)decanoylamino]butanoyl]amino]ethoxy]ethoxy]acetyl]amino]ethoxy]ethoxy]acetyl], N^ε37-[2-[2-[2-[[2-[2-[2-[[(4S)-4-carboxy-4-[10-(4-carboxyphenoxy)decanoylamino]butanoyl]amino]ethoxy]ethoxy]acetyl]amino]ethoxy]ethoxy]acetyl]-[Glu^22,Val^25,Arg^26,Lys^27,Arg^34,Lys^37]-GLP-1-(7-37)-peptide] (H-HAEGTFTSDVSSYLEEQAVRK([AEEA-AEEA-γGlu-Decanoyl(10-(4-HOOC-PhO))])FIAWLVRGRK([AEEA-AEEA-γGlu-Decanoyl(10-(4-HOOC-PhO))])-OH; N-terminus and C-terminus assumed) | 39 | 
2 | CC[C@H](C)[C@H](NC(=O)[C@H](Cc1ccccc1)NC(=O)[C@H](CCCCNC(=O)COCCOCCNC(=O)COCCOCCNC(=O)CC[C@H](NC(=O)CCCCCCCCCOc1ccc(C(=O)O)cc1)C(=O)O)NC(=O)[C@H](CCCNC(=N)N)NC(=O)[C@H](C)NC(=O)[C@H](C)NC(=O)[C@H](CCC(N)=O)NC(=O)CNC(=O)[C@H](CCC(=O)O)NC(=O)[C@H](CC(C)C)NC(=O)[C@H](Cc1ccc(O)cc1)NC(=O)[C@H](CO)NC(=O)[C@H](CO)NC(=O)[C@@H](NC(=O)[C@H](CC(=O)O)NC(=O)[C@H](CO)NC(=O)[C@@H](NC(=O)[C@H](Cc1ccccc1)NC(=O)[C@@H](NC(=O)CNC(=O)[C@H](CCC(=O)O)NC(=O)[C@H](C)NC(=O)[C@@H](N)Cc1c[nH]cn1)[C@@H](C)O)[C@@H](C)O)C(C)C)C(=O)N[C@@H](CCC(=O)O)C(=O)N[C@@H](Cc1c[nH]c2ccccc12)C(=O)N[C@@H](CC(C)C)C(=O)N[C@H](C(=O)N[C@@H](CCCNC(=N)N)C(=O)NCC(=O)N[C@@H](CCCCNC(=O)COCCOCCNC(=O)COCCOCCNC(=O)CC[C@H](NC(=O)CCCCCCCCCOc1ccc(C(=O)O)cc1)C(=O)O)C(=O)NCC(=O)N[C@@H](CCC(=O)O)C(=O)O)C(C)C [Example 6, N^ε27-[2-[2-[2-[[2-[2-[2-[[(4S)-4-carboxy-4-[10-(4-carboxyphenoxy)decanoylamino]butanoyl]amino]ethoxy]ethoxy]acetyl]amino]ethoxy]ethoxy]acetyl], N^ε36-[2-[2-[2-[[2-[2-[2-[[(4S)-4-carboxy-4-[10-(4-carboxyphenoxy)decanoylamino]butanoyl]amino]ethoxy]ethoxy]acetyl]amino]ethoxy]ethoxy]acetyl]-[Arg^26,Lys^27,Glu^30,Arg^34,Lys^36]-GLP-1-(7-37)-peptidyl-Glu] (H-HAEGTFTSDVSSYLEGQAARK([AEEA-AEEA-γGlu-Decanoyl(10-(4-HOOC-PhO))])FIEWLVRGK([AEEA-AEEA-γGlu-Decanoyl(10-(4-HOOC-PhO))])GE-OH; N-terminus and C-terminus assumed) | 93 | 
3 | CC[C@H](C)[C@H](NC(=O)[C@H](Cc1ccccc1)NC(=O)[C@H](CCCCNC(=O)CC[C@H](NC(=O)COCCOCCNC(=O)COCCOCCNC(=O)CCCCCCCCCCCCC(=O)O)C(=O)O)NC(=O)[C@H](CCCNC(=N)N)NC(=O)[C@@H](NC(=O)[C@H](CCCCNC(=O)CC[C@H](NC(=O)COCCOCCNC(=O)COCCOCCNC(=O)CCCCCCCCCCCCC(=O)O)C(=O)O)NC(=O)[C@H](CCC(N)=O)NC(=O)[C@H](CCC(=O)O)NC(=O)[C@H](CCC(=O)O)NC(=O)[C@H](CC(C)C)NC(=O)[C@H](Cc1ccc(O)cc1)NC(=O)[C@H](CO)NC(=O)[C@H](CO)NC(=O)[C@@H](NC(=O)[C@H](CC(=O)O)NC(=O)[C@H](CO)NC(=O)[C@@H](NC(=O)[C@H](Cc1ccccc1)NC(=O)[C@@H](NC(=O)CNC(=O)[C@H](CCC(=O)O)NC(=O)[C@H](C)NC(=O)[C@@H](N)Cc1c[nH]cn1)[C@@H](C)O)[C@@H](C)O)C(C)C)C(C)C)C(=O)N[C@@H](C)C(=O)N[C@@H](Cc1c[nH]c2ccccc12)C(=O)N[C@@H](CC(C)C)C(=O)N[C@H](C(=O)NCC(=O)O)C(C)C [Example 30, N^ε24-[(4S)-4-carboxy-4-[[2-[2-[2-[[2-[2-[2-(13-carboxytridecanoylamino)ethoxy]ethoxy]acetyl]amino]ethoxy]ethoxy]acetyl]amino]butanoyl], N^ε27-[(4S)-4-carboxy-4-[[2-[2-[2-[[2-[2-[2-(13-carboxytridecanoylamino)ethoxy]ethoxy]acetyl]amino]ethoxy]ethoxy]acetyl]amino]butanoyl]-[Glu^22,Lys^24, Val^25, Arg^26, Lys^27,Gly^34]-GLP-1-(7-34)-peptide] (H-HAEGTFTSDVSSYLEEQK([γGlu-AEEA-AEEA-C14 diacid])VRK([γGlu-AEEA-AEEA-C14 diacid])FIAWLVG-OH) |  | > 1000 nM
